Measurements as given in patent US20260182575A1, “MOLECULES HAVING PESTICIDAL UTILITY AND INTERMEDIATES AND PROCESSES RELATED THERETO” (CORTEVA AGRISCIENCE LLC, priority 2022, published 2026).
Values joined by “and” are separate entries in the source; they are usually repeats but may differ in a detail not shown here. Equal entries are not always repeated.

Experiments:
Format in all cases: in vivo
[1] = test system: Brown Planthopper (Nilaparvata lugens, NILALU, BPH); assay: Bioassay 6: brown planthopper, sprayed rice seedlings; conditions: AI alone, AI Rate 0.049 g/ha, 6 days
Procedure: At these rates, F1 and the individual active ingredients were tested at a ratio of 1:1. […] F1 and triflumezopyrim were tested at a ratio of 16:1. Test solutions were prepared containing F1, the individual active ingredients, and mixtures of F1 with each of the active ingredients. Test solutions were prepared by weighing 5 mg of each test chemistry (either alone or in combination depending on the treatment) into a 25 mL glass vial. Next, 1 mL of acetone was added to each vial to dissolve the test chemistries, followed by 19 mL of water with 0.125% Tween 20 adjuvant. This test solution represented the 50 g/ha treatment, which was then serially diluted four-fold to create the three lower rates of 12.5, 3.125, and 0.78 g/ha. Triflumezopyrim was prepared in a similar manner, but two additional serial dilutions were conducted to create solutions representing 6 rates of 12.5, 3.125, 0.78, 0.19, 0.049, and 0.012 g/ha. The higher two doses were discarded, and the four lower doses were used for testing. Each rate was replicated four times, and solvent blanks were used as control treatments.
Five (5) rice seedlings (10-12 days old) planted in 3-inch pots were used as test plants. Rice seedlings were grown in soil and the soil was covered with a 2% agar solution. The test solutions were applied to test plants using a Devries laboratory research sprayer, set to spray at 200 liters per hectare (L/ha) using a TeeJet hollow cone nozzle. Following application, the rice seedlings were dried for 1 hour, after which a single clear plastic tube (2 inches in diameter×12 inches in height) was placed over the seedlings in each pot. The tube was pushed down into the agar to create a sealed test chamber. The agar prevented insects from hiding in the soil and made adult collection and grading easier. Ten to fifteen (10-15) 5th instar BPH nymphs were transferred to each test chamber using a vacuum aspirator. Immediately following BPH infestation, the test chamber was covered with a piece of grade 90 cheesecloth and secured with a rubber band, sealing the test chamber. The test chambers were held at 25° C. for 6 days, after which the total number of live insects was counted in each test chamber. Percent control was measured using Abbott's correction formula (W. S. Abbott, J. Econ. Entomol. 18 (1925), pp. 265-267) as follows:
where X=No. of live insects on solvent check and Y=No. of live insects in treated chambers. In Table B6 the “Expected % Control” was calculated using the method described in Colby S. R., Weeds, 1967, 15, 20-22. Bioassay 7: Corn Earworm (Helicoverpa zea, HELIZE, “CEW”), Fall Armyworm (Spodoptera frugiperda, LAPHFR, “FAW”), Beet Armyworm (Spodoptera exigua, LAPHEG, “BAW”),and Soybean Looper (Chrysodeixis includens, PSEPIN, “SBL”).

[2] = test system: Sweet Potato Whitefly (Bemisia tabaci, BEMITA, SPW); assay: Bioassay 2: sweet potato whitefly, cotton seedling foliar spray; conditions: AI alone
Procedure: Stock solutions were prepared with F1 as well as for each of the active ingredients individually. Test solutions were prepared from the stock solutions. Test solutions were prepared containing F1, the individual active ingredients, and mixtures of F1 with each of the active ingredients. The test solutions for F1 and the individual active ingredients were prepared by adding 500 μL of stock solution to a 25 mL glass vial, then adding 500 μL of acetone, followed by the addition of 9 mL water with 0.025% Tween® 20 to create a 0.001% (w/v) solution. The test solutions containing mixtures of F1, and the individual active ingredients were prepared by adding 500 μL of the active ingredient stock solution to a 25 mL glass vial, followed by 500 μL of the F1 stock solution, then by the addition of 9 mL water with 0.025% Tween® 20 to create a test solution containing 0.001% (w/v) F1 and 0.001% (w/v) of the active ingredient. Each test solution was serially diluted to create desired doses of test solutions (0.001% (w/v), 0.0001% (w/v), 0.00001% (w/v), 0.000001% (w/v), 0.0000001% (w/v), and 0.00000001% (w/v)).
The test solutions were tested against SPW using the following procedure: Cotton seedlings grown in 3-inch pots, pruned so that only one true leaf remained, were used as test substrate. Adult B. tabaci were allowed to colonize the cotton plants and lay eggs for 24 hours after which all adults were removed from the plants using compressed air. Plants were monitored for egg development, and when crawler emergence was underway (>25% emergence based on visual examination using a microscope), the plants were sprayed using the test solutions and methods described above for green peach aphids (GPA). Treated plants were held in a holding room at approximately 25° C. and ambient relative humidity (RH) prior to grading. Evaluation was conducted by counting the number of developed 2-3 instar nymphs per plant under a microscope 7-9 days after treatment. Percent control was measured using Abbott's correction formula (W. S. Abbott, J. Econ. Entomol. 18 (1925), pp. 265-267) as follows:
where X=No. of live nymphs on solvent check plants and Y=No. of live nymphs on treated plants. In Table B2 the “Expected % Control” was calculated using the method described in Colby S. R., Weeds, 1967, 15, 20-22. Bioassay 3: Western Flower Thrips (Frankliniella occidentalis, FRANOC, “WFT”).

[3] = test system: Corn Earworm (Helicoverpa zea, HELIZE, CEW); assay: Bioassay 4: corn earworm, artificial diet, 128-cell tray; conditions: AI alone
Method in brief: (§1)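 Test solutions (0.0000004–0.04% w/v, i.e. 0.00005–5 μg/cm² on diet) were pipetted onto artificial lepidopteran diet and one 2nd-instar larva was placed per cell, 8 replicates per species, held at ~26° C. Live larvae were counted after 5 days; percent control used Abbott's correction against a solvent check.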

[4] = test system: Soybean Looper (Chrysodeixis includens, PSEPIN, SBL); assay: Bioassay 4: soybean looper, artificial diet, 128-cell tray; conditions: AI alone
Method in brief: as §1

[5] = test system: Fall Armyworm (Spodoptera frugiperda, LAPHFR, FAW); assay: Bioassay 4: fall armyworm, artificial diet, 128-cell tray; conditions: AI alone
Method in brief: as §1

## N#CCNC(=O)c1cnccc1C(F)(F)F [Flonicamid]
[1]
  Average % Control AI: 5.4% and 1.1%
[2]; Wt % AI 0.0001, 7-9 days
  Average % Control AI: 0.0%
[3]; 0.000004 wt %
  Average % Control AI: 0.0%
[3]; 0.00004 wt %
  Average % Control AI: 0.0%
[4]; 0.000004 wt %
  Average % Control AI: 0.0%
[4]; 0.00004 wt %
  Average % Control AI: 0.0%
[5]; 0.000004 wt %
  Average % Control AI: 0.0%
[5]; 0.00004 wt %
  Average % Control AI: 0.0%

## O=C1C=C(N(Cc2ccc(Cl)nc2)CC(F)F)CO1 [Flupyradifurone]
[1]
  Average % Control AI: 16.3% and 7.6%
[2]; Wt % AI 0.00001, 7-9 days
  Average % Control AI: 22.9%
[2]; Wt % AI 0.0001, 7-9 days
  Average % Control AI: 39.2%
[3]; 0.000004 wt %
  Average % Control AI: 0.0%
[3]; 0.00004 wt %
  Average % Control AI: 0.0%
[4]; 0.000004 wt %
  Average % Control AI: 0.0%
[4]; 0.00004 wt %
  Average % Control AI: 0.0%
[5]; 0.000004 wt %
  Average % Control AI: 0.0%
[5]; 0.00004 wt %
  Average % Control AI: 0.0%
